Assay [1] deals with rabbit aorta precontracted with noradrenaline. The experiment in a line: relaxation of rabbit aorta precontracted with noradrenaline.
Assay [2] relates to endothelial cells of the microcirculatory system. The experiment in a line: endothelial cell migration, Boyden chambers. The format is cell-based. As to conditions: compared with other NO donors. The text has this: The pharmacological activity of the compounds of the invention has been evaluated by their relaxation induction effect in vascular preparations (rabbit aorta rings) precontracted with noradrenaline (Amerini et al., J. Cardiovasc. Pharmacol., 28: 82-88, […]). The endothelio-protective and pro-angiogenetic effects of the compounds have also been evaluated in a study on the proliferation and migration of endothelial cells of the microcirculatory system (M. Ziche et al., J. Clin. Invest. 94: 2036-2044, 1994).
The endothelio-protective and pro-angiogenetic effect of the compounds was also evaluated by measuring the growth promotion and migration effect on endothelial cells of the microcirculatory system compared with other NO donors. Cell migration was evaluated using Boyden chambers, and proliferation as the total number of cells after 48 hours of exposure to the substances under study (M. Ziche et al., J. Clin. Invest. 94: 2036-2044, 1994).

For the compound `NCCCNCCCCN(CCCN)/[N+]([O-])=N/O` [SpermineNONOate, spermineNONOate], in assay [1], the “vascular relaxation, result in words” value is recorded as “much less powerful than piperazineNONOate complexes”. The “effect on endothelial cell migration, result in words” value in assay [2] is “little active and does not give the maximum effect”.

The record behind these values is patent US6897218B2, “Nitric oxide donors based on metallic centers” (Consiglio Nazionale Delle Ricerche, priority 2001, dated 2005).
